Test results from patent US10954232B2, “Pyrazole derivative as ALK5 inhibitor and uses thereof” (HANMI PHARMACEUTICAL CO., LTD., priority 2016, dated 2021).

Target: T1, ALK5 kinase (Homo sapiens, UniProt P36897)
T1 construct: GST; purchased Thermo Fisher Scientific Solutions
T1 sequence (P36897 34-503): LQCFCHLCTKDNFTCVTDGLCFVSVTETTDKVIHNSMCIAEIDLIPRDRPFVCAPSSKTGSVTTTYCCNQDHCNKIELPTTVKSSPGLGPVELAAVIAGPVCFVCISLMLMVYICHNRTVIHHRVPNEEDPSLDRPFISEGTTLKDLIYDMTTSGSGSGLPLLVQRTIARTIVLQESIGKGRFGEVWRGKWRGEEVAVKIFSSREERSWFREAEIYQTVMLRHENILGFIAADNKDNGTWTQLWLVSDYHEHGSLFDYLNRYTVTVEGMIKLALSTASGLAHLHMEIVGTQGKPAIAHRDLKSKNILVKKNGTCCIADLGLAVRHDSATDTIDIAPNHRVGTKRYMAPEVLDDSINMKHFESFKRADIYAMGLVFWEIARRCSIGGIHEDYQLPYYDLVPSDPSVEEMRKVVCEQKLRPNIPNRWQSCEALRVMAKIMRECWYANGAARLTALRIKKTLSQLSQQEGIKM
Assay: Activity inhibition test on ALK5 enzyme (LanthaScreen Eu binding kinase assay)
Conditions: kinase tracer 178, 60 minutes at room temperature
Description: For each of the compounds obtained in Examples 1 to 227, inhibitory activity against ALK5 kinase was measured.
For this, a LanthaScreen Eu binding kinase assay method was used, and ALK5 kinase, a kinase buffer, a kinase tracer 178, and a LanthaScreen Eu-GST binding antibody were all purchased from Thermo Fisher Scientific Solutions. Each of the compounds was made into a 10 mM DMSO solution, and diluted by 1/10 to a concentration of 1 μM to 0.0001 μM with an aqueous solution containing 4% DMSO. The test was performed in 384 well plates (well polystyrene low volume round-bottomed plates). First, 5 μL of the diluted compound solution was added, then 5 μL of the kinase/antibody mixture solution was introduced thereto, and 5 μL of the tracer was introduced thereto. Herein, these were added to each well so that the final kinase concentration became 5 nM, the final Eu-GST binding antibody concentration 2 nM, and the kinase tracer 178 concentration 10 nM, and the result was reacted in a stirrer for 60 minutes at room temperature. Then a fluorescence value was measured using a fluorescence meter (molecular device) ([…], 665 nm emission filter). Herein, as for the degree of compound activity to inhibit the kinase reaction, a phosphorylate rate was calculated from 0% to 100% with respect to a control group according to the protocol included in the kit, and a 50% inhibitory concentration (IC50) value was calculated by obtaining the x-axis concentration in the region where 50% activity was inhibited.

Row | SMILES | IC50
1 | Cc1cccc(-n2nc(C(=O)Nc3cccc(NS(=O)(=O)C4CC4)c3)cc2-c2ccc3ncsc3c2)n1 [Example 54, 5-(benzo[d]thiazol-6-yl)-N-(3-(cyclopropanesulfonamido)phenyl)-1-(6-methylpyridin-2-yl)-1H-pyrazole-3-carboxyamide] | 2 nM
2 | Cc1cccc(-n2nc(C(=O)Nc3ccc(NS(=O)(=O)C4CC4)cc3)cc2-c2ccc3ncsc3c2)n1 [Example 55, 5-(benzo[d]thiazol-6-yl)-N-(4-(cyclopropanesulfonamido)phenyl)-1-(6-methylpyridin-2-yl)-1H-pyrazole-3-carboxyamide] | 4.2 nM
3 | Cc1cccc(-n2nc(C(=O)Nc3ccc(S(=O)(=O)O)cc3)cc2-c2ccc3ncsc3c2)n1 [Example 56, 4-(5-(benzo[d]thiazol-6-yl)-1-(6-methylpyridin-2-yl)-1H-pyrazole-3-carboxyamido)benzenesulfonic acid] | 2.4 nM
4 | Cc1cccc(-n2nc(C(=O)Nc3ccc(S(=O)(=O)C(F)(F)F)cc3)cc2-c2ccc3ncsc3c2)n1 [Example 57, 5-(benzo[d]thiazol-6-yl)-1-(6-methylpyridin-2-yl)-N-(4-((trifluoromethyl)sulfonyl)phenyl)-1H-pyrazole-3-carboxyamide] | 45 nM
5 | Cc1cccc(-n2nc(C(=O)Nc3ccc(S(=O)(=O)NCC(F)(F)F)cc3)cc2-c2ccc3ncsc3c2)n1 [Example 58, 5-(benzo[d]thiazol-6-yl)-1-(6-methylpyridin-2-yl)-N-(4-(N-(2,2,2-trifluoroethyl)sulfamoyl)phenyl)-1H-pyrazole-3-carboxyamide] | 5.6 nM
6 | Cc1cccc(-n2nc(C(=O)Nc3ccc(CS(C)(=O)=O)cc3)cc2-c2ccc3ncsc3c2)n1 [Example 59, 5-(benzo[d]thiazol-6-yl)-1-(6-methylpyridin-2-yl)-N-(4-((methylsulfonyl)methyl)phenyl)-1H-pyrazole-3-carboxyamide] | 20 nM
7 | Cc1cccc(-n2nc(C(=O)Nc3cccc(CS(N)(=O)=O)c3)cc2-c2ccc3ncsc3c2)n1 [Example 60, 5-(benzo[d]thiazol-6-yl)-1-(6-methylpyridin-2-yl)-N-(3-(sulfamoylmethyl)phenyl)-1H-pyrazole-3-carboxyamide] | 13 nM
8 | Cc1cccc(-n2nc(C(=O)Nc3ccc(CS(N)(=O)=O)cc3)cc2-c2ccc3ncsc3c2)n1 [Example 61, 5-(benzo[d]thiazol-6-yl)-1-(6-methylpyridin-2-yl)-N-(4-(sulfamoylmethyl)phenyl)-1H-pyrazole-3-carboxyamide] | 10 to 100 nM
9 | Cc1cccc(-n2nc(C(=O)Nc3ccc(F)c(CS(N)(=O)=O)c3)cc2-c2ccc3ncsc3c2)n1 [Example 62, 5-(benzo[d]thiazol-6-yl)-N-(4-fluoro-3-(sulfamoylmethyl)phenyl)-1-(6-methylpyridin-2-yl)-1H-pyrazole-3-carboxyamide] | 16 nM
10 | Cc1cccc(-n2nc(C(=O)Nc3ccc(NC4CCS(=O)(=O)C4)cc3)cc2-c2ccc3ncsc3c2)n1 (centres unmarked) [Example 63, 5-(benzo[d]thiazol-6-yl)-N-(4-((1,1-dioxidotetrahydrothiophen-3-yl)amino)phenyl)-1-(6-methylpyridin-2-yl)-1H-pyrazole-3-carboxyamide] | 3.7 nM
11 | Cc1cccc(-n2nc(C(=O)Nc3cccc(S(C)(=O)=O)n3)cc2-c2ccc3ncsc3c2)n1 [Example 68, 5-(benzo[d]thiazol-6-yl)-1-(6-methylpyridin-2-yl)-N-(6-(methylsulfonyl)pyridin-2-yl)-1H-pyrazole-3-carboxyamide] | 65 nM
12 | Cc1cccc(-n2nc(C(=O)NCc3ccccc3)cc2-c2ccc3ncsc3c2)n1 [Example 76, 5-(benzo[d]thiazol-6-yl)-N-benzyl-1-(6-methylpyridin-2-yl)-1H-pyrazole-3-carboxyamide] | ~10 nM
13 | Cc1cccc(-n2nc(C(=O)NCc3ccccc3F)cc2-c2ccc3ncsc3c2)n1 [Example 77, 5-(benzo[d]thiazol-6-yl)-N-(2-fluorobenzyl)-1-(6-methylpyridin-2-yl)-1H-pyrazole-3-carboxyamide] | 7.2 nM
14 | Cc1cccc(-n2nc(C(=O)NCc3cccc(F)c3)cc2-c2ccc3ncsc3c2)n1 [Example 78, 5-(benzo[d]thiazol-6-yl)-N-(3-fluorobenzyl)-1-(6-methylpyridin-2-yl)-1H-pyrazole-3-carboxyamide] | 3.4 nM
15 | Cc1cccc(-n2nc(C(=O)NCc3ccc(F)cc3)cc2-c2ccc3ncsc3c2)n1 [Example 79, 5-(benzo[d]thiazol-6-yl)-N-(4-fluorobenzyl)-1-(6-methylpyridin-2-yl)-1H-pyrazole-3-carboxyamide] | 5.6 nM
16 | Cc1cccc(-n2nc(C(=O)Nc3cnn(S(C)(=O)=O)c3)cc2-c2ccc3ncsc3c2)n1 [Example 80, 5-(benzo[d]thiazol-6-yl)-1-(6-methylpyridin-2-yl)-N-(1-(methylsulfonyl)-1H-pyrazol-4-yl)-1H-pyrazole-3-carboxyamide] | 1.3 nM
17 | Cc1cccc(-n2nc(C(=O)Nc3cnn(S(=O)(=O)C4CC4)c3)cc2-c2ccc3ncsc3c2)n1 [Example 81, 5-(benzo[d]thiazol-6-yl)-N-(1-(cyclopropylsulfonyl)-1H-pyrazol-4-yl)-1-(6-methylpyridin-2-yl)-1H-pyrazole-3-carboxyamide] | 1.5 nM

The next lines start with the values.

Row | IC50 | SMILES
18 | < 10 nM | Cc1cccc(-n2nc(C(=O)Nc3ccncc3)cc2-c2ccc3ncsc3c2)n1 [Example 64, 5-(benzo[d]thiazol-6-yl)-1-(6-methylpyridin-2-yl)-N-(pyridin-4-yl)-1H-pyrazole-3-carboxyamide]
19 | < 10 nM | COc1ccc(NC(=O)c2cc(-c3ccc4ncsc4c3)n(-c3cccc(C)n3)n2)cn1 [Example 65, 5-(benzo[d]thiazol-6-yl)-N-(6-methoxypyridin-3-yl)-1-(6-methylpyridin-2-yl)-1H-pyrazole-3-carboxyamide]
20 | 3.2 nM | COc1cc(NC(=O)c2cc(-c3ccc4ncsc4c3)n(-c3cccc(C)n3)n2)ccn1 [Example 66, 5-(benzo[d]thiazol-6-yl)-N-(2-methoxypyridin-4-yl)-1-(6-methylpyridin-2-yl)-1H-pyrazole-3-carboxyamide]
21 | 9.6 nM | CSc1ccc(NC(=O)c2cc(-c3ccc4ncsc4c3)n(-c3cccc(C)n3)n2)cn1 [Example 67, 5-(benzo[d]thiazol-6-yl)-N-(6-(methylthio)pyridin-3-yl)-1-(6-methylpyridin-2-yl)-1H-pyrazole-3-carboxyamide]
22 | 4.9 nM | Cc1cccc(-n2nc(C(=O)Nc3ccc(S(C)(=O)=O)nc3)cc2-c2ccc3ncsc3c2)n1 [Example 69, 5-(benzo[d]thiazol-6-yl)-N-(6-(methylsulfonyl)pyridin-3-yl)-1-(6-methylpyridin-2-yl)-1H-pyrazole-3-carboxyamide]
23 | 4.6 nM | Cc1cccc(-n2nc(C(=O)Nc3ccnc(S(C)(=O)=O)c3)cc2-c2ccc3ncsc3c2)n1 [Example 70, 5-(benzo[d]thiazol-6-yl)-1-(6-methylpyridin-2-yl)-N-(2-(methylsulfonyl)pyridin-4-yl)-1H-pyrazole-3-carboxyamide]
24 | 8 nM | Cc1cccc(-n2nc(C(=O)Nc3ccc(F)nc3)cc2-c2ccc3ncsc3c2)n1 [Example 71, 5-(benzo[d]thiazol-6-yl)-N-(6-fluoropyridin-3-yl)-1-(6-methylpyridin-2-yl)-1H-pyrazole-3-carboxyamide]
25 | 11 nM | Cc1cccc(-n2nc(C(=O)Nc3ccnc(F)c3)cc2-c2ccc3ncsc3c2)n1 [Example 72, 5-(benzo[d]thiazol-6-yl)-N-(2-fluoropyridin-4-yl)-1-(6-methylpyridin-2-yl)-1H-pyrazole-3-carboxyamide]
26 | 5.8 nM | Cc1cccc(-n2nc(C(=O)Nc3ccc(Cl)nc3)cc2-c2ccc3ncsc3c2)n1 [Example 73, 5-(benzo[d]thiazol-6-yl)-N-(6-chloropyridin-3-yl)-1-(6-methylpyridin-2-yl)-1H-pyrazole-3-carboxyamide]
27 | 2.3 nM | Cc1cccc(-n2nc(C(=O)Nc3ccnc(Cl)c3)cc2-c2ccc3ncsc3c2)n1 [Example 74, 5-(benzo[d]thiazol-6-yl)-N-(2-chloropyridin-4-yl)-1-(6-methylpyridin-2-yl)-1H-pyrazole-3-carboxyamide]
28 | 7.4 nM | Cc1cccc(-n2nc(C(=O)Nc3nccs3)cc2-c2ccc3ncsc3c2)n1 [Example 75, 5-(benzo[d]thiazol-6-yl)-1-(6-methylpyridin-2-yl)-N-(thiazol-2-yl)-1H-pyrazole-3-carboxyamide]
29 | 2.7 nM | Cc1cccc(-n2nc(C(=O)Nc3cccc(O)c3)cc2-c2ccc3ncsc3c2)n1 [Example 82, 5-(benzo[d]thiazol-6-yl)-N-(3-hydroxyphenyl)-1-(6-methylpyridin-2-yl)-1H-pyrazole-3-carboxyamide]
